# “And” between values parts separate entries of the source, which are not always exact repeats. Equal entries are not always repeated.
# Legend:
# [1] = system: TAMH vector-only control cells; test: Cytotoxicity (Alamar Blue); format: cell-based, murine; details: 24 h
# Protocol: (§1) TAMH cells were transfected with DNA encoding each of the mutant BCl-xL proteins by lipofection (See Example 1 for method). For analysis of BCl-xL expression, 20 μg of cell protein was separated by 20% SDS-PAGE and transferred to nitrocellulose membranes. Immunodetection of BCl-xL was carried out using rabbit anti-Bcl-xL antibody and Protein A/horseradish peroxidase conjugate, followed by chemiluminescent detection. Cells were grown to about 80% confluence in 96-well plates followed by addition of 100 μl of 2X AA1 or staurosporine (STS) solution in complete medium. STS is a natural product originally isolated from the bacterium Streptomyces and found to be capable of inducing apoptosis in certain cells and which induction of apoptosis could be blocked by the expression of a Bcl-2 family protein. Cell viability was determined spectrophotometrically after 24 h treatment as the ratio of reduced and oxidized Alamar Blue (BIOSOURCE) at 570 nm and 600 nm, respectively. All results were normalized against DMSO controls. LD50 values were calculated by non-linear regression analysis using Prism software (Graphpad).
# [2] = system: TAMH cells over-expressing Bcl-xL WT; test: Cytotoxicity (Alamar Blue) in Bcl-xL transfectants; format: cell-based, murine; details: 24 h
# Protocol: as §1
# [3] = system: TAMH cells over-expressing Bcl-xL F97W; test: Cytotoxicity (Alamar Blue) in Bcl-xL transfectants; format: cell-based, murine; details: 24 h
# Protocol: as §1
# [4] = system: TAMH cells over-expressing Bcl-xL A142L; test: Cytotoxicity (Alamar Blue) in Bcl-xL transfectants; format: cell-based, murine; details: 24 h
# Protocol: as §1
# [5] = system: TAMH cells over-expressing Bcl-xL E92L; test: Cytotoxicity (Alamar Blue) in Bcl-xL transfectants; format: cell-based, murine; details: 24 h
# Protocol: as §1
# [6] = system: TAMH cells over-expressing Bcl-xL F146L; test: Cytotoxicity (Alamar Blue) in Bcl-xL transfectants; format: cell-based, murine; details: 24 h
# Protocol: as §1
# [7] = system: mitochondria with normal levels of Bcl-xL expression; test: JC-1 membrane potential of isolated mitochondria; design: species or system murine
# Protocol: Isolated mitochondria were loaded with JC-1 prior to treatment, and mitochondrial labeling was determined using FACS. […] Antimycin A-treated mitochondria with high levels of Bcl-xL had lower levels of JC-1 staining than parallel samples treated with CCCP. Uncoupled mitochondria still retain a significant Donnan potential because of trapped anionic species and it is likely that antimycin-induced PT and/or swelling of mitochondria led to a further reduction of this residual potential.
# As observed for the parent compound, antimycin A3, mitochondria with normal levels of BCl-xL expression were not affected by the 2-methoxy analog.
# [8] = molecular target: T1, recombinant human Bcl-2ΔC22 (Homo sapiens, UniProt P10415); test: Antimycin A3 fluorescence binding and competition assay
# T1 construct: poly-His (N); made in house
# Protocol: In this assay, 0 to 5 μM antimycin A3 (Sigma Chemical Co., St. Louis, Mo.) was added to a physiological buffer (50 mM Tris-HCl pH 8.0, 0.2 M NaCl, 2 mM EDTA, 0.5% v/v glycerol) containing recombinant Bcl-2 or BCl-xL protein under conditions that permitted antimycin A3 to bind to the BH3-binding domain of Bcl-2 or BCl-xL (22.5° C. on a Hitachi F-2500 fluorescence spectrofluorimeter equipped with a thermostatted cell holder). […] The excitation wavelength was 335 nm, and the maximum emission wavelength for antimycin A3 was 428 nm with a slit width of 10 nm. The samples were mixed in a quartz cuvette and checked for inner filter effect over the concentration range of antimycin A3 used for this study. Blanks containing antimycin A3 at the same concentration as the experimental samples were used as controls in all measurements and necessary background corrections were made.
# Recombinant human Bcl-2ΔC22 (a recombinant human Bcl-2 with a delection of 22 amino acid residue membrane anchor sequence from the carboxyl end) and mouse Bcl-xLΔC20 (a recombinant murine BCl-xL with a delection of the 20 amino acid residue membrane anchor sequence from the carboxyl end) fused with poly-His at the N-terminus were chromatographically purified to homogeneity. The concentrations of antimycin A3 and stock solutions of recombinant proteins were quantitated using an extinction coefficient of 7.24/mM/cm at 320 nm and by Bradford assay, respectively. The stoichiometric ratio of antimycin A3 and Bcl-2 producing the maximal change in antimycin A3 fluorescence was determined with incremental addition of antimycin A3 to a 1.98 μM solution of recombinant Bcl-2 in a volume of 2.1 milliliters. […] For peptide displacement experiments, a solution of 2 μM antimycin A3 and 3 μM Bcl-2 was allowed to reach binding equilibrium at 4° C. prior to fluorescence measurements. Native peptide corresponding to the BH3 domain of Bak (72-[…]87 (SEQ ID NO:1)) or a mutant peptide with a single amino acid change (Leu78Ala-BH3) was added to the solution and the fluorescence measurements were repeated. […]
# [9] = system: TABX1A cells (under-expressing Bcl-xL); test: Cell viability by trypan blue dye exclusion; details: Mus musculus, 48 h, read-out: cells remained viable
# Description: (§2) Briefly, a DNA fragment encoding the full-length mouse BCl-xL cDNA was isolated from the plasmid PBS.BCL-xL (Tzung et al., Am. J. Path. 150:1985-1995, 1997, incorporated herein by reference in its entirety) by digestion with the restriction endonuclease EcoRI. This EcoRI fragment was cloned into the EcoRI site of the mammalian expression vector pSFFV (Fuhlbrigge et al., Proc. Nat. Acad. Sci. USA 85:5649-5653, 1988) in both sense and antisense orientations, to form expression plasmids pSFFV.Bcl-xL(sense) or pSFFV.Bcl-xL(antisense), respectively. The tumorigenic murine hepatocyte cell line TAMH was transfected by lipofection (Lipofectamine, Life Technologies, Rockville, Md., according to the manufacturer's recommendations) with the plasmids pSFFV.neo (the control), pSFFV.Bcl-xL(sense) or pSFFV.Bcl-xL(antisense). […] Transfectants were selected for the acquisition of neomycin resistance by growing cells in the presence of 750 μg/ml of G418. Bulk transfectants were cloned by limiting dilution and individual clones were screened by immunoblot analysis to determine the level of BCl-xL protein expression as described below.
# (§3) Selected transfectants were then tested for whole cell sensitivity to several apoptotic agents. Transfected cells were cultured to reach approximately 80% confluency prior to plating an equal number of cells from selected clones on 12-well tissue culture plates. […] Cell viability was determined by trypan blue dye exclusion. The percentage of viable cells was calculated by the number of viable cells (treated with a particular apoptogenic agent) divided by the number in the control group (untreated).
# (§4) TABX2S cells and TABX1A cells were also examined for the effects of various mitochondrial inhibitors. […] At various time points after drug treatment, cells were trypsinized, and cell viability was determined by trypan blue dye exclusion. The number of viable cells were counted and normalized to control group (i.e., % control=number of viable cells (treated group)/number of viable cells (control group)×100).
# TAMH.neo cells (control) = test: Cell viability by trypan blue dye exclusion; details: Mus musculus, 48 h, read-out: cells remained viable
# Description: as §2, §3, §4
# [10] = system: TABX2S cells (over-expressing Bcl-xL); test: cells; details: for difference in sensitivity of the two cell lines: TABX2S vs TABX1A
# Description: as §2
# Selected transfectants were then tested for whole cell sensitivity to several apoptotic agents. Transfected cells were cultured to reach approximately 80% confluency prior to plating an equal number of cells from selected clones on 12-well tissue culture plates. The transplanted cells were treated with the following apoptotic agents: 5 μM doxorubicin for 48 hours; 5 μM cisplatin for 48 hours; or with 200 U/ml tumor necrosis factor (TNF) plus 1 μg/ml actinomycin D for 18 hours. Cell viability was determined by trypan blue dye exclusion. The percentage of viable cells was calculated by the number of viable cells (treated with a particular apoptogenic agent) divided by the number in the control group (untreated).
# TABX2S cells and TABX1A cells were also examined for the effects of various mitochondrial inhibitors. […] Azide was diluted from an aqueous stock solution. […] Controls received an equivalent concentration of diluent. At various time points after drug treatment, cells were trypsinized, and cell viability was determined by trypan blue dye exclusion. The number of viable cells were counted and normalized to control group (i.e., % control=number of viable cells (treated group)/number of viable cells (control group)×100).
# U266 = test: Propidium iodide exclusion / flow cytometry cytotoxicity; format: cell-based, human; details: oligomycin 2-10 mg/ml, rotenone 0.5-2.5 mg/ml
# Protocol: (§5) Cell survival was assayed by exclusion of propidium iodide (PI; 10 μg/ml) by unfixed cells. Annexin V-FITC (Pharmingen) or 3, 3′-dihexyloxacarbocyanine iodide (DiOC6(3); Molecular Probes) staining was analyzed together with PI to discriminate early apoptotic cells. Apoptotic cells were also measured as sub-G1 events among ethanol-fixed cells stained with 10 μg/ml PI. All cell samples were analyzed using a benchtop FACSCalibur™ (Becton Dickinson, San Jose, Calif.). Flow data were analyzed using MultiCycle AV software (Phoenix Flow Systems). For intracellular pH measurements, cell pellets were washed once and resuspended in 2 ml of HEPES-buffered medium (no phenol red and no serum). Carboxy-SNARF-1-AM (Molecular Probes, 1 mM stock in DMSO, stored at −20° C.) was added to a final concentration of 10 μM, and the cells were incubated for 30 min at 37° C. Following incubation with SNARF, cells were sedimented and the pellets were held on ice. Immediately before analysis, pellets were resuspended in […] (HBSS; experimental buffer) or high-[K+] buffer containing nigericin (calibration samples).
# NCI-H929 = test: as above; format: cell-based, human; details: oligomycin 2-10 mg/ml, rotenone 0.5-2.5 mg/ml
# Protocol: as §5
# RPMI-8226 = test: as above; format: cell-based, human; details: oligomycin 2-10 mg/ml, rotenone 0.5-2.5 mg/ml
# Protocol: as §5
# Bcl-xL(ΔC) WT = molecular target: T2, Bcl-xL(ΔC) WT (Homo sapiens, UniProt Q07817); test: Pore-forming activity, calcein release from liposomes; format: biochemical
# T2 construct: inferred from Ni-NTA purification and the pET22b(+) NdeI/XhoI cloning); made in house; host or cells: Escherichia coli BL21(DE3) carrying pUB520
# Protocol: Large unilamellar vesicles composed of 60% dioleoylphophatidylcholine and 40% dioleoylphosphatidylglycerol were prepared by the extrusion method of Mayer et al., supra. Lipid stocks, in chloroform, were mixed and dried under a stream of nitrogen gas. The lipid was resuspended by vortexing for 30 min in a solution of 40 mM calcein (Molecular Probes), 25 mM KCl, and 10 mM KOAc, pH 5.0. After 10 freeze-thaw cycles, the lipid suspension was extruded through two 0.1 μm pore diameter Nucleopore filters. Non-entrapped dye was removed by passage over a Sephadex G10 column (Amersham Biosciences). Lipid concentration was measured using the ammonium ferrothiocyanate method (Stewart, Anal. Biochem. 104:10-14, 1980).
# For pore assays, recombinant truncated Bcl-2 family protein or mutant protein (Bcl-xL(ΔC)) (500 nM) was added to large unilamellar vesicles (60 μM lipid concentration) in 100 mM KCl, 10 mM KOAc, pH 5.0, and fluorescence measured (490 nm excitation, 520 nm emission) with a Fluoromax-3 spectrophotometer. Peptides of the BH3 domain were incubated with the BCl-xL(ΔC) 5 min prior to mixing with liposomes. AA1 was added to liposomes 1 min before adding the Bcl-xL(ΔC) protein. Samples for kinetic assays were analyzed in a thermostatted cuvette at 37° C. with constant stirring. Dose responses were measured in black quartz microplates (Hellma) at room temperature. Calcein release was expressed as percentage of maximum release with detergent lysis (0.1% Triton X-100).
# T1 sequence (P10415 1-217 limits assumed, stated change not applied): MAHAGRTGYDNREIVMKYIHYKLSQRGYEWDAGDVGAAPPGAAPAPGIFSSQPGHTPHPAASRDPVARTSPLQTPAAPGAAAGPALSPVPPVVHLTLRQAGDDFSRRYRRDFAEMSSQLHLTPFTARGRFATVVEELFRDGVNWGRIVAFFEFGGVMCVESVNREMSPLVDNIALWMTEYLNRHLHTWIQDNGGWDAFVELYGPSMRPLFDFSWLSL
# T2 sequence (Q07817 1-211 limits assumed, stated change not applied): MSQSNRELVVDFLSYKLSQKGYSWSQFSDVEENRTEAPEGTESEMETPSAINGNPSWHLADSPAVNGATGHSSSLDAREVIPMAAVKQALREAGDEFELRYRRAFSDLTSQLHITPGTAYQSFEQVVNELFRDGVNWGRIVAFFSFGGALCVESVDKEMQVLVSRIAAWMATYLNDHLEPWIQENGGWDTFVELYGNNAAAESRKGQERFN
smiles,measurement,setting,value
"CN[C@@H]1C[C@H]2O[C@@](C)([C@@H]1OC)n1c3ccccc3c3c4c(c5c6ccccc6n2c5c31)C(=O)NC4 [STS, staurosporine]",Cytotoxicity LD50,[1],0.11 ± 0.01 µM
same,Cytotoxicity LD50,[2],0.58 ± 0.1 µM and 0.58 ± 0.14 µM
same,Cytotoxicity LD50,[3],0.34 ± 0.10 µM
same,Cytotoxicity LD50,[4],0.49 ± 0.11 µM
same,Cytotoxicity LD50,[5],0.52 ± 0.12 µM
same,Cytotoxicity LD50,[6],0.38 ± 0.04 µM
"CCCC[C@H]1C(=O)O[C@H](C)[C@H](NC(=O)c2cccc(NC=O)c2O)C(=O)O[C@@H](C)[C@@H]1OC(=O)CC(C)C [antimycin A3, reference compound]",mitochondrial depolarization (JC-1),[7],not affected
same,increase of intrinsic fluorescence at 428 nm in the presence of Bcl-2,[8],≤ 18%
COc1cccc2c1C(=O)c1c(O)c3c(c(O)c1C2=O)C[C@@](O)(C(=O)CO)C[C@@H]3O[C@H]1C[C@H](N)[C@H](O)[C@H](C)O1 [doxorubicin],viability at 5 µM,[9],20%
same,viability at 5 µM,TAMH.neo cells (control),50%
same,viability at 5 µM,"[10]; Mus musculus, 48 h, read-out: cells remained viable",88%
CC[C@H]1/C=C/C=C/C[C@@H](C)[C@H](O)[C@@](C)(O)C(=O)[C@@H](C)[C@H](O)[C@@H](C)C(=O)[C@@H](C)[C@H](O)[C@@H](C)/C=C/C(=O)O[C@@H]2[C@H](C)[C@H](CC1)O[C@]1(CC[C@H](C)[C@H](C[C@@H](C)O)O1)[C@H]2C [oligomycin],cell killing by oxidative phosphorylation inhibitors,U266,Only NCI-H929 cells were killed
same,cell killing by oxidative phosphorylation inhibitors,NCI-H929,killed
same,cell killing by oxidative phosphorylation inhibitors,RPMI-8226,Only NCI-H929 cells were killed
same,difference in sensitivity of the two cell lines,[10],no significant differences
CCCC[C@H]1C(=O)O[C@H](C)[C@H](NC(=O)c2cccc(NC=O)c2OCC(=O)c2ccccc2)C(=O)O[C@@H](C)[C@@H]1OC(=O)CC(C)C [phenacyl ether antimycin A3],effect on Bcl-xL pore-forming activity,Bcl-xL(ΔC) WT,no effect
same,competition with antimycin A3 for Bcl-2,"[8]; 2 μM each, Bcl-2 3 μM, 7.5 minutes, 22.5° C.",did not displace antimycin A3
C=C(C)[C@H]1Cc2c(ccc3c2O[C@@H]2COc4cc(OC)c(OC)cc4[C@@H]2C3=O)O1 [rotenone],cell killing by oxidative phosphorylation inhibitors,U266,none of the myeloma cell lines were killed
same,cell killing by oxidative phosphorylation inhibitors,NCI-H929,none of the myeloma cell lines were killed
same,cell killing by oxidative phosphorylation inhibitors,RPMI-8226,none of the myeloma cell lines were killed
same,difference in sensitivity of the two cell lines,[10],no significant differences
same,time until cell death apparent,"[10]; after treatment, TABX2S and TABX1A cells",six to eight
